Experimental data reported in ChEMBL document CHEMBL3865829 (Eur J Med Chem, 2016).
Values after ≈ are worked out from the molar mass of the structure shown. Blank lines part the entries; values can stand above or below the molecule they belong to.

What was measured:
[1] = Antitumor activity against human Bel7404 cells xenografted in BALB/c nude mouse assessed as tumor volume at 50 mg/kg, ig administered via oral gavage once daily for 14 consecutive days measured on day 1 (reference value: 101.62 +/- 26.48 mm3); type: functional, BEL-7404
[2] = Antitumor activity against human Bel7404 cells xenografted in BALB/c nude mouse assessed as tumor volume at 50 mg/kg, ig administered via oral gavage once daily for 14 consecutive days measured on day 3 (reference value: 176.17 +/- 57.63 mm3); type: functional, BEL-7404
[3] = Antitumor activity against human Bel7404 cells xenografted in BALB/c nude mouse assessed as tumor volume at 50 mg/kg, ig administered via oral gavage once daily for 14 consecutive days measured on day 7 (reference value: 284.68 +/- 74.36 mm3); type: functional, BEL-7404
[4] = Antitumor activity against human Bel7404 cells xenografted in BALB/c nude mouse assessed as tumor volume at 50 mg/kg, ig administered via oral gavage once daily for 14 consecutive days measured on day 10 (reference value: 425.92 +/- 102.32 mm3); type: functional, BEL-7404
[5] = Antitumor activity against human Bel7404 cells xenografted in BALB/c nude mouse assessed as tumor volume at 50 mg/kg, ig administered via oral gavage once daily for 14 consecutive days measured on day 14 (reference value: 589.54 +/- 162.22 mm3); type: functional, BEL-7404
[6] = Antitumor activity against human Bel7404 cells xenografted in BALB/c nude mouse assessed as tumor volume at 50 mg/kg, ig administered via oral gavage once daily for 14 consecutive days measured on day 17 (reference value: 747.40 +/- 169.75 mm3); type: functional, BEL-7404
[7] = Antitumor activity against human Bel7404 cells xenografted in BALB/c nude mouse assessed as tumor growth inhibition at 50 mg/kg, ig administered via oral gavage once daily for 14 consecutive days measured on day 29; type: functional; settings: BEL-7404, po, 696 h, read-out: TGI
[8] = Antitumor activity against human A549 cells xenografted in BALB/c nude mouse assessed as tumor growth inhibition at 3 mg/kg, ig administered via oral gavage once daily for 9 consecutive days followed by subsequent dosing on days 13 and 14 measured on day 30 relative to control; type: functional; settings: 720 h, read-out: TGI
[9] = Cytotoxicity against human A549 cells after 72 hrs by MTT assay; type: functional, cell-based; settings: A549, 72 h
[10] = Cytotoxicity against human U87MG cells after 72 hrs by MTT assay; type: functional, cell-based, U-87MG ATCC; settings: U-87 MG
[11] = Aqueous solubility of the compound in pH 1 simulated gastric fluid; type: ADME
[12] = Antitumor activity against human A549 cells xenografted in BALB/c nude mouse assessed as tumor volume at 3 mg/kg, ig administered via oral gavage once daily for 9 consecutive days followed by subsequent dosing on day 13 and 14 measured on day 15 (reference value: 2071.51 +/- 682.84 mm3); type: functional
[13] = Antitumor activity against human A549 cells xenografted in BALB/c nude mouse assessed as tumor volume at 3 mg/kg, ig administered via oral gavage once daily for 9 consecutive days followed by subsequent dosing on day 13 and 14 measured on day 18 (reference value: 3045.91 +/- 854.27 mm3); type: functional
Mus musculus [14] = test: Toxicity in nude BALB/c mouse xenografted with human A549 cells assessed as body weight at 3 mg/kg, ig administered via oral gavage once daily for 9 consecutive days followed by subsequent dosing on day 13 and 14 measured on day 1 (reference value: 24.38 +/- 0.76 g); type: organism-based; settings: in vivo
Mus musculus [15] = test: Toxicity in nude BALB/c mouse xenografted with human A549 cells assessed as body weight at 3 mg/kg, ig administered via oral gavage once daily for 9 consecutive days followed by subsequent dosing on day 13 and 14 measured on day 4 (reference value: 24.77 +/- 0.93 g); type: organism-based; settings: in vivo
Mus musculus [16] = test: Toxicity in nude BALB/c mouse xenografted with human A549 cells assessed as body weight at 3 mg/kg, ig administered via oral gavage once daily for 9 consecutive days followed by subsequent dosing on day 13 and 14 measured on day 8 (reference value: 25.66 +/- 1.04 g); type: organism-based; settings: in vivo
Mus musculus [17] = test: Toxicity in nude BALB/c mouse xenografted with human A549 cells assessed as body weight at 3 mg/kg, ig administered via oral gavage once daily for 9 consecutive days followed by subsequent dosing on day 13 and 14 measured on day 11 (reference value: 26.11 +/- 1.06 g); type: organism-based; settings: in vivo
Mus musculus [18] = test: Toxicity in nude BALB/c mouse xenografted with human A549 cells assessed as body weight at 3 mg/kg, ig administered via oral gavage once daily for 9 consecutive days followed by subsequent dosing on day 13 and 14 measured on day 15 (reference value: 27.12 +/- 1.43 g); type: organism-based; settings: in vivo
Mus musculus [19] = test: Toxicity in nude BALB/c mouse xenografted with human A549 cells assessed as body weight at 3 mg/kg, ig administered via oral gavage once daily for 9 consecutive days followed by subsequent dosing on day 13 and 14 measured on day 18 (reference value: 27.75 +/- 1.41 g); type: organism-based; settings: in vivo
[20] = Antitumor activity against human A549 cells xenografted in BALB/c nude mouse assessed as tumor volume at 3 mg/kg, ig administered via oral gavage once daily for 9 consecutive days followed by subsequent dosing on day 13 and 14 measured on day 1 (reference value: 156.87 +/- 22.32 mm3); type: functional
[21] = Antitumor activity against human A549 cells xenografted in BALB/c nude mouse assessed as tumor volume at 3 mg/kg, ig administered via oral gavage once daily for 9 consecutive days followed by subsequent dosing on day 13 and 14 measured on day 4 (reference value: 419.55 +/- 104.72 mm3); type: functional
[22] = Antitumor activity against human A549 cells xenografted in BALB/c nude mouse assessed as tumor volume at 3 mg/kg, ig administered via oral gavage once daily for 9 consecutive days followed by subsequent dosing on day 13 and 14 measured on day 8 (reference value: 840.07 +/- 205.19 mm3); type: functional
[23] = Antitumor activity against human A549 cells xenografted in BALB/c nude mouse assessed as tumor volume at 3 mg/kg, ig administered via oral gavage once daily for 9 consecutive days followed by subsequent dosing on day 13 and 14 measured on day 11 (reference value: 1327.66 +/- 404.92 mm3); type: functional
cells = settings: Homo sapiens, HCT-116, 72 h
[24] = Cytotoxicity against human MDA-MB-231 cells after 72 hrs by MTT assay; type: functional, cell-based; settings: MDA-MB-231, 72 h
[25] = Cytotoxicity against human HepG2 cells after 72 hrs by MTT assay; type: functional, cell-based; settings: HepG2, 72 h
[26] = Cytotoxicity against human NCI60 cells after 48 hrs by SRB assay; type: functional; settings: NCI60, 48 h
HCT-116 = test: Potency index, ratio of GSK2126458 IC50 to compound IC50 for human HCT116 cells; type: functional
[27] = target: Phosphatidylinositol 4,5-bisphosphate 3-kinase catalytic subunit alpha isoform (Homo sapiens, UniProt P42336); test: Inhibition of PI3Kalpha (unknown origin) using PIP2 as substrate after 1 hr in presence of ATP by kinase-glo luminescence assay
Sequence of Phosphatidylinositol 4,5-bisphosphate 3-kinase catalytic subunit alpha isoform (P42336 whole entry, canonical isoform): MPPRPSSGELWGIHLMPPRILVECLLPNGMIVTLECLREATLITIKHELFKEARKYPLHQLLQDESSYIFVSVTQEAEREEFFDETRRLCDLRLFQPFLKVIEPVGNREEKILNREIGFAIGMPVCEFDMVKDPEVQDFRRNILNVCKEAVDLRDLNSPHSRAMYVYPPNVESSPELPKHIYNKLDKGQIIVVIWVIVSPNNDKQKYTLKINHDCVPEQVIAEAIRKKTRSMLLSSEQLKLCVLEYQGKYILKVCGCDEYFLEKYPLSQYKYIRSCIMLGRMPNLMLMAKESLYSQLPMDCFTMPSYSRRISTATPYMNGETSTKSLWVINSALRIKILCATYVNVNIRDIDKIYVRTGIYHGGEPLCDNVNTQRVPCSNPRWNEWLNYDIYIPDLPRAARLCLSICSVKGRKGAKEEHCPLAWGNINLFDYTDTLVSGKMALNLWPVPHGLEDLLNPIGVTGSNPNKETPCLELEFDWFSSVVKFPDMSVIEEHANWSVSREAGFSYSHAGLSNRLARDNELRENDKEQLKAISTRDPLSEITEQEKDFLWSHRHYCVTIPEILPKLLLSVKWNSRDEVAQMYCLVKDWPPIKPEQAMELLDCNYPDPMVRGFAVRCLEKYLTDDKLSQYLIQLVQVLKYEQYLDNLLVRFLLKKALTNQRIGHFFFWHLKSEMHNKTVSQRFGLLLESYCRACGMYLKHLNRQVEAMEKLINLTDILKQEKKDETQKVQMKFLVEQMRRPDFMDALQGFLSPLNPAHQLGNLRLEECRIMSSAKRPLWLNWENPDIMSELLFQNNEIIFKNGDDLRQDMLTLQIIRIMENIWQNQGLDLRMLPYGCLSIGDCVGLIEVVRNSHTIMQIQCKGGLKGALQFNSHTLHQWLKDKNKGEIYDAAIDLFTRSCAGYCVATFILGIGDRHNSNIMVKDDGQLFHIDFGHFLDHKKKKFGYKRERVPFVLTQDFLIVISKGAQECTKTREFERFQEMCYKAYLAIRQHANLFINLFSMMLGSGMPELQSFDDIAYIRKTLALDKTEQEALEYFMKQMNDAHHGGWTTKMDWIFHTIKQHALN

- solubility [11]: 200 µg/mL (≈ 396 µM)
- IC50 (cells): 154 nM
SMILES: COc1ncc(-c2ccc3nccc(-c4ccnnc4)c3c2)cc1NS(=O)(=O)c1ccc(F)cc1F [OMIPALISIB]
- inhibition in vivo at 3 mg/kg [8]: 65.9%
- IC50 [9]: 140 nM
- IC50 [10]: 537 nM
- Activity [12]: 669.43 mm3
- Activity [13]: 968.24 mm3
- Activity (Mus musculus [14]): 24.7 g
- Activity (Mus musculus [15]): 24.55 g
- Activity (Mus musculus [16]): 22.98 g
- Activity (Mus musculus [17]): 21.63 g
- Activity (Mus musculus [18]): 20.92 g
- Activity (Mus musculus [19]): 22.22 g
- Activity [20]: 146.36 mm3
- Activity [21]: 261.5 mm3
- Activity [22]: 396.45 mm3
- Activity [23]: 520.69 mm3

- IC50 (cells): 41 nM
SMILES: CN(CCO)Cc1ccc(-c2ccnc3ccc(-c4cnc(Cl)c(NS(=O)(=O)c5ccc(F)cc5F)c4)cc23)cc1
- IC50 [9]: 121 nM
- IC50 [24]: 337 nM
- IC50 [25]: 2880 nM

- IC50 (cells): 24 nM
SMILES: COc1ncc(-c2ccc3nccc(-c4ccc(CN(C)C)cc4)c3c2)cc1NS(=O)(=O)c1ccc(F)cc1
- IC50 [9]: 25 nM
- IC50 [24]: 350 nM
- IC50 [25]: 3020 nM

- IC50 (cells): 51 nM
SMILES: O=S(=O)(Nc1cc(-c2ccc3nccc(-c4ccc(CN5CCOCC5)cc4)c3c2)cnc1Cl)c1ccc(F)cc1F
- IC50 [9]: 24 nM
- IC50 [24]: 2420 nM
- IC50 [25]: 2310 nM

- IC50 (cells): 8.7 nM
SMILES: COc1ncc(-c2ccc3nccc(-c4ccc(Cn5cncn5)cc4)c3c2)cc1NS(=O)(=O)c1ccc(F)cc1F
- IC50 [9]: 16 nM
- Ratio IC50 (HCT-116): 18

- IC50 [27]: 2.5 nM
SMILES: COc1ncc(-c2ccc3nccc(-c4ccc(CN(C)CCN(C)C)cc4)c3c2)cc1NS(=O)(=O)c1ccc(F)cc1F
- IC50 [9]: 13 nM
- IC50 [10]: 254 nM

More lines, now with the values behind:

SMILES: CNC(=O)c1cc(Oc2ccc(NC(=O)Nc3ccc(Cl)c(C(F)(F)F)c3)cc2)ccn1 [SORAFENIB]
- Activity [1]: 97.11 mm3
- Activity [2]: 136.23 mm3
- Activity [3]: 206.94 mm3
- Activity [4]: 257.88 mm3
- Activity [5]: 334.93 mm3
- Activity [6]: 413.79 mm3
- inhibition in vivo at 50 mg/kg [7]: 43.8%

SMILES: CC[C@@]1(O)C(=O)OCc2c1cc1n(c2=O)Cc2cc3ccccc3nc2-1 [CAMPTOTHECIN]
- GI50 [26]: 39.8 nM

SMILES: COc1ncc(-c2ccc3nccc(-c4ccc(CN5CCOCC5)cc4)c3c2)cc1NS(=O)(=O)c1ccc(F)cc1
- IC50 [9]: 17 nM
- IC50 [24]: 1970 nM
- IC50 [25]: 27200 nM
- IC50 (cells): 30 nM

SMILES: CC(=O)O[C@H]1C(=O)[C@@]2(C)[C@H]([C@H](OC(=O)c3ccccc3)[C@]3(O)C[C@H](OC(=O)[C@H](O)[C@@H](NC(=O)c4ccccc4)c4ccccc4)C(C)=C1C3(C)C)[C@]1(OC(C)=O)CO[C@@H]1C[C@@H]2O [PACLITAXEL]
- GI50 [26]: 31.5 nM

SMILES: COc1ncc(-c2ccc3nccc(-c4ccc(CN(C)CCO)cc4)c3c2)cc1NS(=O)(=O)c1ccc(F)cc1F
- IC50 [9]: 20 nM
- Ratio IC50 (HCT-116): >30
- IC50 (cells): 4.7 nM

SMILES: COc1ncc(-c2ccc3nccc(-c4ccc(CN5CCOCC5)cc4)c3c2)cc1NS(=O)(=O)c1ccc(F)cc1F
- IC50 [9]: 70 nM
- IC50 [27]: 1.1 nM
